# Test results reported in US10551313B1, “Surface plasmon resonance based mechanical sensing of beating heart cells” (The Florida International University Board of Trustees, priority 2019, dated 2020).
# Test system: living cardiomyocytes
# Assay: SPR based sensing of beating (cardiac activity) of cardiomyocytes cultured on the SPR sensing surface
# Type: cell-based, rat
# Conditions: injection of 10 μM, SPR resonance angle shift vs time, compared with control group without injection (FIG. 5)
# Text: In one particular embodiment, rat cardiomyocytes were isolated from neonatal rat hearts from day one through day three and cultured on the SPR sensing surface 100 of the SPR based sensing system. Subsequently, the spontaneous contractions, expansions, or movements of the rat cardiomyocytes under normal living conditions were monitored by using the SPR based sensing system. In an embodiment, the SPR based sensing system can sense the beating characteristics of the living cardiomyocytes after the living cardiomyocytes is stimulated by an injection of a stimulator such as, for example, adenosine triphosphate (ATP). In another embodiment, the SPR based sensing system can sense the beating characteristics of the living cardiomyocytes after the living cardiomyocytes is inhibited by an injection of an inhibitor such as, for example, blebbistatin.
row,Compound,cardiac activity (beating frequency) of the cardiomyocytes
1,Cc1ccc2c(c1)C(=O)C1(O)CCN(c3ccccc3)C1=N2 (centres unmarked) [blebbistatin],lower cardiac activity (slower beats with frequencies lower than the baseline frequencies)
2,"Nc1ncnc2c1ncn2[C@@H]1O[C@H](COP(=O)(O)OP(=O)(O)OP(=O)(O)O)[C@@H](O)[C@H]1O [ATP, adenosine triphosphate]",higher cardiac activity (faster beats with frequencies higher than the baseline frequencies)
